Data reported in patent US12629385B2, “Stable AST-3424 injection preparation and preparation method” (OBI PHARMA, INC., priority 2019, dated 2026).

Assays:
[1] = Study on solution stability of AST-3424 in different solutions (HPLC content, pH); type: physicochemical
Method: Approximate 107.32 mg of AST-3424 (50% v/v, ethanol) was measured, and put in 50-ml volumetric flasks, to which solvents (organic solvents, buffer solutions, or purified water) were added to the scale, respectively. At each predetermined time point, 1 ml of the sample was measured for HPLC analysis. If API was stable in different pH solutions, the sampling time would be extended, e.g., 5 days or longer.
(§1) For samples used for the assay in the solubility study, about 1 ml of the culture medium was measured, then the resultant was centrifuged at 10000 rpm for 10 min, and the clear solution in […] was collected for HPLC analysis. For the study on solution stability, the samples could be directly injected into HPLC for analysis.
(§2) Content determination by HPLC method: AST-3424 was used as an external standard for quantitation.
UVDAD detector: wavelength: 230 nm. C18 column, column temperature: 25° C.
• A: 10 mmol/L ammonium acetate solution obtained by dissolving ammonium acetate in a mixed solvent of 95% water and 5% acetonitrile by volume; • B: 8 mmol/L ammonium acetate solution obtained by dissolving ammonium acetate in a mixed solvent of 95% acetonitrile and 5% water by volume;
Gradient elution was performed.

[2] = Solubility test of AST-3424 at 25° C. (shaking incubator, HPLC content, pH); type: physicochemical; conditions: for Content (solubility study): 25° C.
Method: An appropriate amount of AST-3424 (hereinafter referred to as the active pharmaceutical ingredient or API) was measured, and put in a suitable container containing 40 ml of the above solution (20 ml for an organic solvent) until there were excessive AST-3424 oil droplets in the solution.
The samples were placed in a constant-temperature shaking incubator, the temperature of which was maintained at 25° C. The samples were shaken at an appropriate speed (100 rpm). Sampling was carried out at each predetermined time point as listed in Table 1, and the pH was examined. Then, the samples were centrifuged (10000 rpm, 10 min), and diluted to a concentration suitable for HPLC analysis (note: accurately recording the dilution ratio after the test) by adding the corresponding solution or organic solvent (dissolving API for solubility study), so as to obtain solubility data.
as §1, §2
According to the results of solution stability, AST-3424 was very unstable in the pH4.5 acetate buffer. Therefore, the solubility was tested in the pH6.8 phosphate buffer, the pH7.4 phosphate buffer, the pH10.0 alkaline borate buffer, and the purified water. An appropriate amount of AST-3424 was weighed and put into 40 mL of medium (ethanol/propylene glycol: 8 mL, 50:50V/V) until there were excessive floccules in the solution. If the solubility of API in the aqueous solution was greater than 2% (20 mg/ml), there was no need to add more API.

C[C@H](OP(=O)(N1CC1)N1CC1)c1ccc([N+](=O)[O-])c(Oc2cccc(C(=O)N(C)C)c2)c1 [AST-3424, (S)-1-(3-(3-N,N-dimethylaminocarbonyl)phenoxyl-4-nitrophenyl)-1-ethyl-N,N′-bis(ethylene)phosphoramidate]
pH value ([1]; AST-3424 solution in pH 4.5 acetate buffer, 0 h): 4.497 | pH value ([1]; AST-3424 solution in pH 4.5 acetate buffer, 72 h): 4.477 | pH value ([1]; AST-3424 solution in pH 6.8 phosphate buffer, 0 h): 6.815 | pH value ([1]; AST-3424 solution in pH 6.8 phosphate buffer, 72 h): 6.855 | pH value ([1]; AST-3424 solution in pH 7.4 phosphate buffer, 0 h): 7.481 | pH value ([1]; AST-3424 solution in pH 7.4 phosphate buffer, 72 h): 7.534 | pH value ([1]; AST-3424 solution in pH 10.0 alkaline borate buffer, 0 h): 9.984 | pH value ([1]; AST-3424 solution in pH 10.0 alkaline borate buffer, 72 h): 10.023 | pH value ([1]; AST-3424 solution in purified water, 0 h): 5.152 | pH value ([1]; AST-3424 solution in purified water, 72 h): 6.435 | Content ([1]; Ethanol/propylene glycol (50:50, v/v), 0 h, room temperature): 1.295 mg/mL | Content ([1]; Ethanol/propylene glycol (50:50, v/v), 1 h, room temperature): 1.287 mg/mL | Content ([1]; Ethanol/propylene glycol (50:50, v/v), 4 h, room temperature): 1.287 mg/mL | Content ([1]; Ethanol/propylene glycol (50:50, v/v), 8 h, room temperature): 1.287 mg/mL | Content ([1]; Ethanol/propylene glycol (50:50, v/v), 24 h, room temperature): 1.302 mg/mL | Content ([1]; Ethanol/propylene glycol (50:50, v/v), 48 h, room temperature): 1.284 mg/mL | Content ([1]; Ethanol/propylene glycol (50:50, v/v), 72 h, room temperature): 1.275 mg/mL | Content ([1]; Ethanol, 0 h, room temperature): 1.238 mg/mL | Content ([1]; Ethanol, 1 h, room temperature): 1.280 mg/mL | Content ([1]; Ethanol, 4 h, room temperature): 1.246 mg/mL | Content ([1]; Ethanol, 8 h, room temperature): 1.240 mg/mL | Content ([1]; Ethanol, 24 h, room temperature): 1.240 mg/mL | Content ([1]; Ethanol, 48 h, room temperature): 1.278 mg/mL | Content ([1]; Ethanol, 72 h, room temperature): 1.236 mg/mL | Content ([1]; Purified water, 0 h, room temperature): 1.186 mg/mL | Content ([1]; Purified water, 1 h, room temperature): 1.126 mg/mL | Content ([1]; Purified water, 4 h, room temperature): 1.056 mg/mL | Content ([1]; Purified water, 8 h, room temperature): 1.005 mg/mL | Content ([1]; Purified water, 24 h, room temperature): 0.918 mg/mL | Content ([1]; Purified water, 48 h, room temperature): 0.860 mg/mL | Content ([1]; Purified water, 72 h, room temperature): 0.810 mg/mL | Solution stability ([1]; pH4.5 acetate buffer): very unstable | Content ([1]; pH 4.5 acetate buffer, 0 h, room temperature): 0.673 mg/mL | Content ([1]; pH 4.5 acetate buffer, 1 h, room temperature): 0.413 mg/mL | Content ([1]; pH 4.5 acetate buffer, 4 h, room temperature): 0.218 mg/mL | Content ([1]; pH 4.5 acetate buffer, 8 h, room temperature): 0.093 mg/mL | Content ([1]; pH 4.5 acetate buffer, 24 h, room temperature): 0.013 mg/mL | Content ([1]; pH 6.8 phosphate buffer, 0 h, room temperature): 1.202 mg/mL | Content ([1]; pH 6.8 phosphate buffer, 1 h, room temperature): 1.200 mg/mL | Content ([1]; pH 6.8 phosphate buffer, 4 h, room temperature): 1.193 mg/mL | Content ([1]; pH 6.8 phosphate buffer, 8 h, room temperature): 1.185 mg/mL | Content ([1]; pH 6.8 phosphate buffer, 24 h, room temperature): 1.168 mg/mL | Content ([1]; pH 6.8 phosphate buffer, 48 h, room temperature): 1.145 mg/mL | Content ([1]; pH 6.8 phosphate buffer, 72 h, room temperature): 1.102 mg/mL | Solution stability ([1]; pH7.4 phosphate buffer): stable | Content ([1]; pH 7.4 phosphate buffer, 0 h, room temperature): 1.267 mg/mL | Content ([1]; pH 7.4 phosphate buffer, 1 h, room temperature): 1.266 mg/mL | Content ([1]; pH 7.4 phosphate buffer, 4 h, room temperature): 1.266 mg/mL | Content ([1]; pH 7.4 phosphate buffer, 8 h, room temperature): 1.262 mg/mL | Content ([1]; pH 7.4 phosphate buffer, 24 h, room temperature): 1.262 mg/mL | Content ([1]; pH 7.4 phosphate buffer, 48 h, room temperature): 1.249 mg/mL | Content ([1]; pH 7.4 phosphate buffer, 72 h, room temperature): 1.228 mg/mL | Content ([1]; pH 10.0 (alkaline borate buffer), 0 h, room temperature): 1.265 mg/mL | Content ([1]; pH 10.0 (alkaline borate buffer), 1 h, room temperature): 1.265 mg/mL | Content ([1]; pH 10.0 (alkaline borate buffer), 4 h, room temperature): 1.261 mg/mL | Content ([1]; pH 10.0 (alkaline borate buffer), 8 h, room temperature): 1.258 mg/mL | Content ([1]; pH 10.0 (alkaline borate buffer), 24 h, room temperature): 1.261 mg/mL | Content ([1]; pH 10.0 (alkaline borate buffer), 48 h, room temperature): 1.257 mg/mL | Content ([1]; pH 10.0 (alkaline borate buffer), 72 h, room temperature): 1.242 mg/mL | Time for which API was stable in solution ([1]; room temperature, ethanol, ethanol/propylene glycol=1/1, pH7.4 and pH10.0 buffer solutions): at least 72 h | Solution stability ([1]; room temperature, pH4.5 solution and water): unstable | Time for which API was stable in solution ([1]; room temperature, pH6.8 solution): at least 24 h | Solution stability ([1]; water and pH6.8 phosphate buffer): relatively poor stability | Content (solubility study) ([2]; Ethanol/propylene glycol (50:50, v/v), 1 h): 271.28 mg/mL | Content (solubility study) ([2]; Ethanol/propylene glycol (50:50, v/v), 8 h): 301.33 mg/mL | Content (solubility study) ([2]; Ethanol/propylene glycol (50:50, v/v), 24 h): 298.85 mg/mL | Solubility, description of terms ([2]; alcohol solvents such as ethanol/propylene glycol (50:50, v/v)): Freely soluble | pH value (solubility study) ([2]; excess AST-3424 in pH 6.8 phosphate buffer, 1 h): 6.856 | pH value (solubility study) ([2]; excess AST-3424 in pH 6.8 phosphate buffer, 4 h): 6.837 | pH value (solubility study) ([2]; excess AST-3424 in pH 6.8 phosphate buffer, 8 h): 6.855 | pH value (solubility study) ([2]; excess AST-3424 in pH 6.8 phosphate buffer, 24 h): 6.841 | pH value (solubility study) ([2]; excess AST-3424 in pH 6.8 phosphate buffer, 48 h): 6.860 | pH value (solubility study) ([2]; excess AST-3424 in pH 7.4 phosphate buffer, 1 h): 7.477 | pH value (solubility study) ([2]; excess AST-3424 in pH 7.4 phosphate buffer, 4 h): 7.462 | pH value (solubility study) ([2]; excess AST-3424 in pH 7.4 phosphate buffer, 8 h): 7.475 | pH value (solubility study) ([2]; excess AST-3424 in pH 7.4 phosphate buffer, 24 h): 7.455 | pH value (solubility study) ([2]; excess AST-3424 in pH 7.4 phosphate buffer, 48 h): 7.482 | pH value (solubility study) ([2]; excess AST-3424 in pH 10.0 alkaline borate buffer, 1 h): 9.998 | pH value (solubility study) ([2]; excess AST-3424 in pH 10.0 alkaline borate buffer, 4 h): 9.980 | pH value (solubility study) ([2]; excess AST-3424 in pH 10.0 alkaline borate buffer, 8 h): 9.971 | pH value (solubility study) ([2]; excess AST-3424 in pH 10.0 alkaline borate buffer, 24 h): 9.932 | pH value (solubility study) ([2]; excess AST-3424 in pH 10.0 alkaline borate buffer, 48 h): 9.952 | pH value (solubility study) ([2]; excess AST-3424 in purified water, 1 h): 5.004 | pH value (solubility study) ([2]; excess AST-3424 in purified water, 4 h): 5.651 | pH value (solubility study) ([2]; excess AST-3424 in purified water, 8 h): 5.971 | pH value (solubility study) ([2]; excess AST-3424 in purified water, 24 h): 6.378 | pH value (solubility study) ([2]; excess AST-3424 in purified water, 48 h): 6.512 | Solubility (initial investigation, words) ([2]; methanol, propanol, butanol, ethylene glycol, propylene glycol, glycerol, 1,3-butanediol, 1,2-butanediol): good solubility | Content (solubility study) ([2]; pH 6.8 (phosphate buffer), 4 h): 22.92 mg/mL | Content (solubility study) ([2]; pH 6.8 (phosphate buffer), 8 h): 23.03 mg/mL | pH of the solutions of API at different time points ([2]; pH6.8, pH7.4 and pH10.0 media): remained unchanged | Content (solubility study) ([2]; pH 7.4 (phosphate buffer), 1 h): 23.65 mg/mL | Content (solubility study) ([2]; pH 7.4 (phosphate buffer), 4 h): 23.47 mg/mL | Content (solubility study) ([2]; pH 7.4 (phosphate buffer), 8 h): 23.56 mg/mL | Content (solubility study) ([2]; pH 7.4 (phosphate buffer), 24 h): 23.65 mg/mL | Content (solubility study) ([2]; pH 10.0 (alkaline borate buffer), 1 h): 23.50 mg/mL | Content (solubility study) ([2]; pH 10.0 (alkaline borate buffer), 4 h): 23.56 mg/mL | Content (solubility study) ([2]; pH 10.0 (alkaline borate buffer), 8 h): 23.48 mg/mL | Content (solubility study) ([2]; pH 10.0 (alkaline borate buffer), 24 h): 23.49 mg/mL | Solubility, description of terms ([2]; water, pH6.8 phosphate buffer, pH7.4 phosphate buffer, pH10.0 alkaline borate buffer): sparingly soluble
